Assay results: patent publication US12325697B2 (Nimbus Clio, Inc., priority 2021, dated 2025)

Legend:
[1] = target: Recombinant human Cbl-b (aa 36-427) (Homo sapiens (Human), UniProt Q13191); assay: Cbl-b Biochemical Assay (TR-FRET); settings: read-out: TR-FRET hCbl-b IC50
Procedure, shortened: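 Two-step TR-FRET: 6 nM biotinylated Cbl-b preincubated 30-60 min with compound, then 60 min at RT with 1-2.5 nM Src-Zap70 and 0.5 mM ATP in HEPES pH 7.0 buffer, 1% DMSO. Stopped with 5 mM EDTA plus 100 nM UBE2D2-Ub-FL-BODIPY and 1 nM streptavidin-Tb, 60 min; 520 nm signal; IC50 from 4-parameter fit.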

[2] = target: Recombinant human c-Cbl (aa 47-435) (Homo sapiens (Human), UniProt P22681); assay: c-Cbl Biochemical Assay (TR-FRET)
Chain of Recombinant human c-Cbl (aa 47-435) (P22681 47-435): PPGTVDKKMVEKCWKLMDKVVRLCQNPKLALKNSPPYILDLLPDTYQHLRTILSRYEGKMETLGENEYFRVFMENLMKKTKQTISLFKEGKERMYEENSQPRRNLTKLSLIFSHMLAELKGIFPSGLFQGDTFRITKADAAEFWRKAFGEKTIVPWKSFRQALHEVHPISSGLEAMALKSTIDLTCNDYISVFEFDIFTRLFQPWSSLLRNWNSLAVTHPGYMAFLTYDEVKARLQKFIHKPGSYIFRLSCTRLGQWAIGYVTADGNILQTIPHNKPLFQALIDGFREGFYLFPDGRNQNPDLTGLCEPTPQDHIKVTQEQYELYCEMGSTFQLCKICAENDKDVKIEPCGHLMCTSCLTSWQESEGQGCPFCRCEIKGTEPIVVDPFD
Procedure, shortened: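 Biotinylated c-Cbl (6 nM) preincubated 30 min RT with compound, then reacted 60-90 min with Src-Zap70 (2.5-10 nM) and 0.5 mM ATP, pH 7.0 HEPES buffer. Stopped with EDTA; 100 nM Bodipy-ubiquitinated UBE2D2 binding read by TR-FRET after 60 min; IC50 from 4-parameter fit.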

Chain of Recombinant human Cbl-b (aa 36-427) (Q13191 36-427): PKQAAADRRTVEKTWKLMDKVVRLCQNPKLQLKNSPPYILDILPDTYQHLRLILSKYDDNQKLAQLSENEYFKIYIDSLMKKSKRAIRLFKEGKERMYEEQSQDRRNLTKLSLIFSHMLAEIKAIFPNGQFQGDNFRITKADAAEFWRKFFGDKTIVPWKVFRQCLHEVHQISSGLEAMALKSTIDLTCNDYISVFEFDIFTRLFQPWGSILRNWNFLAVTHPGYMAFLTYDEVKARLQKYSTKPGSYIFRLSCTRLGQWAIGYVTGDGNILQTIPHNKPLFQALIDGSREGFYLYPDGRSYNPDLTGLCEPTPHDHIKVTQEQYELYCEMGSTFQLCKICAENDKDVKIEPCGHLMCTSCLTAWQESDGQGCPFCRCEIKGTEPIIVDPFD

## Cn1cnnc1-c1cc(C#N)ccc1-c1cc(C2CC2)nc(N2Cc3ccc(CNCC4CC(F)(F)C4)cc3C2=O)c1 [AKC-2, 4-{2-Cyclopropyl-6-[6-({[(3,3-difluorocyclobutyl)methyl]amino}methyl)-1-oxo-3H-isoindol-2-yl]pyridin-4-yl}-3-(4-methyl-1,2,4-triazol-3-yl)benzonitrile]
[1]
  IC50: ≤ 200 nM
[2]
  IC50: ≤ 200 nM

## CO[C@@H](C)[C@H](C)NCc1cc(F)c2c(c1)C(=O)N(c1cc(-c3ccc(C#N)cc3-c3nncn3C)cc(C3CC3)n1)C2 [AMD-2, 4-{2-Cyclopropyl-6-[4-fluoro-6-({[(2S,3S)-3-methoxybutan-2-yl]amino}methyl)-1-oxo-3H-isoindol-2-yl]pyridin-4-yl}-3-(4-methyl-1,2,4-triazol-3-yl)benzonitrile]
[1]
  IC50: ≤ 200 nM
[2]
  IC50: ≤ 200 nM

## CC[C@@H](O)CNCc1ccc2c(c1)C(=O)N(c1cc(-c3ccc(C#N)cc3-c3nncn3C)cc(C3CC3)n1)C2 [AIP-2, 4-{2-Cyclopropyl-6-[6-({[(2R)-2-hydroxybutyl]amino}methyl)-1-oxo-3H-isoindol-2-yl]pyridin-4-yl}-3-(4-methyl-1,2,4-triazol-3-yl)benzonitrile]
[1]
  IC50: ≤ 200 nM
[2]
  IC50: ≤ 200 nM

## Cn1cnnc1-c1cc(F)ccc1-c1cc(C2CC2)nc(N2Cc3c(F)cc(CO)cc3C2=O)c1 [AMI-1, 2-{6-Cyclopropyl-4-[4-fluoro-2-(4-methyl-1,2,4-triazol-3-yl)phenyl]pyridin-2-yl}-4-fluoro-6-(hydroxymethyl)-3H-isoindol-1-one]
[1]
  IC50: ≤ 200 nM
[2]
  IC50: ≤ 200 nM

## Cn1cnnc1-c1cc(C#N)ccc1-c1cc(C2CC2)nc(N2Cc3ccc(OC[C@H](O)CO)cc3C2=O)c1 [AJN-3, (R)-4-(2-Cyclopropyl-6-(6-(2,3-dihydroxypropoxy)-1-oxoisoindolin-2-yl)pyridin-4-yl)-3-(4-methyl-4H-1,2,4-triazol-3-yl)benzonitrile]
[1]
  IC50: ≤ 200 nM
[2]
  IC50: ≤ 200 nM

## CC(=O)c1ccc2c(c1)C(=O)N(c1cc(-c3ccc(C#N)cc3-c3nncn3C)cc(C3CC3)n1)C2 [AJH-3, 4-(2-(6-Acetyl-1-oxoisoindolin-2-yl)-6-cyclopropylpyridin-4-yl)-3-(4-methyl-4H-1,2,4-triazol-3-yl)benzonitrile]
[1]
  IC50: ≤ 200 nM
[2]
  IC50: ≤ 200 nM

## COC(C)(C)CNCc1ccc2c(c1)C(=O)N(c1cc(-c3ccc(C#N)cc3-c3nncn3C)cc(C3CC3)n1)C2 [AIW-2, 4-[2-Cyclopropyl-6-(6-{[(2-methoxy-2-methylpropyl)amino]methyl}-1-oxo-3H-isoindol-2-yl)pyridin-4-yl]-3-(4-methyl-1,2,4-triazol-3-yl)benzonitrile]
[1]
  IC50: ≤ 200 nM
[2]
  IC50: ≤ 200 nM

## CNCCNCc1cc2c(c(C(F)(F)F)c1)CN(c1cc(-c3ccc(C#N)cc3-c3nncn3C)cc(C3CC3)n1)C2=O [AMK-3, 4-{2-Cyclopropyl-6-[6-({[2-(methylamino)ethyl]amino}methyl)-1-oxo-4-(trifluoromethyl)-3H-isoindol-2-yl]pyridin-4-yl}-3-(4-methyl-1,2,4-triazol-3-yl)benzonitrile]
[1]
  IC50: ≤ 200 nM
[2]
  IC50: ≤ 200 nM

## CO[C@@H](C)CNCc1cc(F)c2c(c1)C(=O)N(c1cc(-c3ccc(C#N)cc3-c3nncn3C)cc(C3CC3)n1)C2 [AKW-1, 4-{2-Cyclopropyl-6-[4-fluoro-6-({[(2S)-2-methoxypropyl]amino}methyl)-1-oxo-3H-isoindol-2-yl]pyridin-4-yl}-3-(4-methyl-1,2,4-triazol-3-yl)benzonitrile]
[1]
  IC50: ≤ 200 nM
[2]
  IC50: ≤ 200 nM

## Cn1cnnc1-c1cc(C#N)ccc1-c1cc(C2CC2)nc(N2Cc3ccc(CNC(C)(C)C4COC4)cc3C2=O)c1 [ANM-2, 4-{2-Cyclopropyl-6-[6-({[2-(oxetan-3-yl)propan-2-yl]amino}methyl)-1-oxo-3H-isoindol-2-yl]pyridin-4-yl}-3-(4-methyl-1,2,4-triazol-3-yl)benzonitrile]
[1]
  IC50: ≤ 200 nM
[2]
  IC50: ≤ 200 nM

## Cn1cnnc1-c1cc(C#N)ccc1-c1cc(C2CC2)nc(N2Cc3ccc(C(C)(C)NCC4COC4)cc3C2=O)c1 [AMT-2, 4-[2-Cyclopropyl-6-(6-{2-[(oxetan-3-ylmethyl)amino]propan-2-yl}-1-oxo-3H-isoindol-2-yl)pyridin-4-yl]-3-(4-methyl-1,2,4-triazol-3-yl) benzonitrile]
[1]
  IC50: ≤ 200 nM
[2]
  IC50: ≤ 200 nM

## Cn1cnnc1-c1cc(C#N)ccc1-c1cc(C2CC2)nc(N2Cc3c(cc(CNCC4(O)CCC4)c(F)c3F)C2=O)c1 [AOX-1, 4-{2-Cyclopropyl-6-[4,5-difluoro-6-({[(1-hydroxycyclobutyl)methyl]amino}methyl)-1-oxo-3H-isoindol-2-yl]pyridin-4-yl}-3-(4-methyl-1,2,4-triazol-3-yl)benzonitrile]
[1]
  IC50: ≤ 200 nM
[2]
  IC50: ≤ 200 nM

## CC[C@H](O)CNCc1ccc2c(c1)C(=O)N(c1cc(-c3ccc(C#N)cc3-c3nncn3C)cc(C3CC3)n1)C2 [AJA-2, (S)-4-(2-Cyclopropyl-6-(6-(((2-hydroxybutyl)amino)methyl)-1-oxoisoindolin-2-yl)pyridin-4-yl)-3-(4-methyl-4H-1,2,4-triazol-3-yl)benzonitrile]
[1]
  IC50: ≤ 200 nM
[2]
  IC50: ≤ 200 nM

## COCC1(NCc2ccc3c(c2)C(=O)N(c2cc(-c4ccc(C#N)cc4-c4nncn4C)cc(C4CC4)n2)C3)CC1 [ALT-2, 4-{2-Cyclopropyl-6-[6-({[1-(methoxymethyl)cyclopropyl]amino}methyl)-1-oxo-3H-isoindol-2-yl]pyridin-4-yl}-3-(4-methyl-1,2,4-triazol-3-yl)benzonitrile]
[1]
  IC50: ≤ 200 nM
[2]
  IC50: ≤ 200 nM

## Cn1cnnc1-c1cc(C#N)ccc1-c1cc(C2CC2)nc(N2Cc3c(F)cc(CNCCC(F)F)cc3C2=O)c1 [AME-2, 4-[2-Cyclopropyl-6-(6-{[(3,3-difluoropropyl)amino]methyl}-4-fluoro-1-oxo-3H-isoindol-2-yl)pyridin-4-yl]-3-(4-methyl-1,2,4-triazol-3-yl)benzonitrile]
[1]
  IC50: ≤ 200 nM
[2]
  IC50: ≤ 200 nM

## Cn1cnnc1-c1cc(C#N)ccc1-c1cc(C2CC2)nc(N2Cc3cc(Cl)c(CO)cc3C2=O)c1 [AKN-12, 4-{2-[5-Chloro-6-(hydroxymethyl)-1-oxo-3H-isoindol-2-yl]-6-cyclopropylpyridin-4-yl}-3-(4-methyl-1,2,4-triazol-3-yl)benzonitrile]
[1]
  IC50: ≤ 200 nM
[2]
  IC50: ≤ 200 nM

## COCCNCc1cc2c(cc1F)CN(c1cc(-c3ccc(C#N)cc3-c3nncn3C)cc(C3CC3)n1)C2=O [AIH-2, 4-(2-Cyclopropyl-6-(5-fluoro-6-(((2-methoxyethyl)amino)methyl)-1-oxoisoindolin-2-yl)pyridin-4-yl)-3-(4-methyl-4H-1,2,4-triazol-3-yl)benzonitrile]
[1]
  IC50: ≤ 200 nM
[2]
  IC50: ≤ 200 nM

## Cn1cnnc1-c1cc(F)ccc1-c1cc(C2CC2)nc(N2Cc3c(F)cc(CNCC4(O)CCC4)cc3C2=O)c1 [AMJ-1, 2-{6-Cyclopropyl-4-[4-fluoro-2-(4-methyl-1,2,4-triazol-3-yl)phenyl]pyridin-2-yl}-4-fluoro-6-({[(1-hydroxycyclobutyl)methyl]amino}methyl)-3H-isoindol-1-one]
[1]
  IC50: ≤ 200 nM
[2]
  IC50: ≤ 200 nM

## COCCNCc1cc2c(c(F)c1F)CN(c1cc(-c3ccc(C#N)cc3-c3nncn3C)cc(C3CC3)n1)C2=O [AMP-1, 4-[2-Cyclopropyl-6-(4,5-difluoro-6-{[(2-methoxyethyl)amino]methyl}-1-oxo-3H-isoindol-2-yl)pyridin-4-yl]-3-(4-methyl-1,2,4-triazol-3-yl)benzonitrile]
[1]
  IC50: ≤ 200 nM
[2]
  IC50: ≤ 200 nM
